Data published in patent publication US9975907B2, “Pyrimidinones as PI3K inhibitors” (Incyte Corporation, priority 2009, dated 2018).
Where a name gives a salt, the structure may show the parent alone.

Target: PI3Kδ (p110δ/p85α) (Homo sapiens (Human), UniProt O00329)
Test: PI3Kδ Scintillation Proximity Assay (Assay A3)
Format: biochemical
Conditions: column b, Assay A3 (SPA), 20 μM ATP
Source text: [γ-^33P]ATP (10 mCi/mL) was purchased from Perkin-Elmer (Waltham, Mass.). Lipid kinase substrate, D-myo-Phosphatidylinositol 4,5-bisphosphate (PtdIns(4,5)P2)D (+)-sn-1,2-di-O-octanoylglyceryl, 3-O-phospho linked (PIP2), CAS 204858-53-7, was purchased from Echelon Biosciences (Salt Lake City, Utah). PI3Kδ (p110δ/p85α) was purchased from Millipore (Bedford, Mass.). ATP, MgCl2, DTT, EDTA, MOPS and CHAPS were purchased from Sigma-Aldrich (St. Louis, Mo.). Wheat Germ Agglutinin (WGA) YSi SPA Scintillation Beads was purchased from GE healthcare life sciences (Piscataway, N.J.).
The kinase reaction was conducted in polystyrene 384-well matrix white plate from Thermo Fisher Scientific in a final volume of 25 μL. Inhibitors were first diluted serially in DMSO and added to the plate wells before the addition of other reaction components. The final concentration of DMSO in the assay was 0.5%. The PI3K assays were carried out at room temperature in 20 mM MOPS, pH 6.7, 10 mM MgCl2, 5 mM DTT and CHAPS 0.03%. Reactions were initiated by the addition of ATP, the final reaction mixture consisted of 20 μM PIP2, 20 μM ATP, 0.2 μCi [γ-^33P] ATP, 4 nM PI3Kδ. Reactions were incubated for 210 min and terminated by the addition of 40 μL SPA beads suspended in quench buffer: 150 mM potassium phosphate pH 8.0, 20% glycerol. 25 mM EDTA, 400 μM ATP. The final concentration of SPA beads was 1.0 mg/mL. After the plate sealing, plates were shaken overnight at room temperature and centrifuged at 1800 rpm for 10 minutes, the radioactivity of the product was determined by scintillation counting on Topcount (Perkin-Elmer). IC50 determination was performed by fitting the curve of percent control activity versus the log of the inhibitor concentration using the GraphPad Prism 3.0 software.

Chain of PI3Kδ (p110δ/p85α) (O00329 whole entry, species assumed): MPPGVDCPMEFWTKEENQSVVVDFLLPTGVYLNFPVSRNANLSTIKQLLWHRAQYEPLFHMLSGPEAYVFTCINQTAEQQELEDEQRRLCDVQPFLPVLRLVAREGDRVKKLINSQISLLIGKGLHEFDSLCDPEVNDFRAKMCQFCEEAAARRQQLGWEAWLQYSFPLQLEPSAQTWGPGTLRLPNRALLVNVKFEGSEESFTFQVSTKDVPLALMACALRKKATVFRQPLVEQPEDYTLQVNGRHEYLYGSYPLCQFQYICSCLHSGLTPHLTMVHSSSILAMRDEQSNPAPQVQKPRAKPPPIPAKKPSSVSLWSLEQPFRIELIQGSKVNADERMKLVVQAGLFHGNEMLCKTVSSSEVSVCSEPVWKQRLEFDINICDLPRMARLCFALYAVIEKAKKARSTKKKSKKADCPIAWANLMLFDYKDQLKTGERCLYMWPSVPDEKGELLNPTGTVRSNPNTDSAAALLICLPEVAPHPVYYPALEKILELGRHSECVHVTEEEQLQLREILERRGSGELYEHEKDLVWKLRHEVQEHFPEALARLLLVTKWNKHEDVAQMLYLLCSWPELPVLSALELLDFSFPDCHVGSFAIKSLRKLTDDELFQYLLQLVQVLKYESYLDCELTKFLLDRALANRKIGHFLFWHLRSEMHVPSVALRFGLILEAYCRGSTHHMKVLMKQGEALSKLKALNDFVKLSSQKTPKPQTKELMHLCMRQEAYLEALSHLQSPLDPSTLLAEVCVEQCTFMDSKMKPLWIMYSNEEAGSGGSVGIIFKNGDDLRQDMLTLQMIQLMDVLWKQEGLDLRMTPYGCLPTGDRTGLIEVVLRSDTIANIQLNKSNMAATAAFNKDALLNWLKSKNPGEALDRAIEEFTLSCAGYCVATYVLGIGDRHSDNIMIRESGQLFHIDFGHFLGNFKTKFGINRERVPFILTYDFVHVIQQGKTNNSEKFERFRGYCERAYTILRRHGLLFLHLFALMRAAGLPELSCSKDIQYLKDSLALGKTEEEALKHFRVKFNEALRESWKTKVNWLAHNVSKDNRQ
Chain of PI3Kδ (p110δ/p85α) (P27986 whole entry partner, species assumed): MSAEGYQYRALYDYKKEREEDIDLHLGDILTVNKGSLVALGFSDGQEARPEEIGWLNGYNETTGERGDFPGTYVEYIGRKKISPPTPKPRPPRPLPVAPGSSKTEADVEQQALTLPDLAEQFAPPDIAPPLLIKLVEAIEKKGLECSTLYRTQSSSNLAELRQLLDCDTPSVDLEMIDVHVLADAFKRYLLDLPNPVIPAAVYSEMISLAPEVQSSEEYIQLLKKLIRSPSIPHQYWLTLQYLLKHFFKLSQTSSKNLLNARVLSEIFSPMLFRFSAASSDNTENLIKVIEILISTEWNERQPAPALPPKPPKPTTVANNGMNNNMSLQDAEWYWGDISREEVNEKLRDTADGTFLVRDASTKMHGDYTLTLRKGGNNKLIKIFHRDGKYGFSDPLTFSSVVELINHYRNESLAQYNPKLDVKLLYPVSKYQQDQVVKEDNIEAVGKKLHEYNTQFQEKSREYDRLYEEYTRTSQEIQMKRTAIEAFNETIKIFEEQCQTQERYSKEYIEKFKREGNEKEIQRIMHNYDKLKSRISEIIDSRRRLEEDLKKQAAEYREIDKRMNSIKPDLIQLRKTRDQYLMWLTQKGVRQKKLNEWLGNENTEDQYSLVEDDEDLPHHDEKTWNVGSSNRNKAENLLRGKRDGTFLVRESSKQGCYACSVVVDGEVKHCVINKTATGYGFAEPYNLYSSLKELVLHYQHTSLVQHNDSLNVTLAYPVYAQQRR

| SMILES | IC50 [nM] |
| --- | --- |
| Cc1cccc(-c2c(C(C)Nc3nc(N)nc4[nH]cnc34)nc3cccc(C)n3c2=O)c1 (stereo not drawn) [Example 52, 2-{1-[(2-Amino-9H-purin-6-yl)amino]ethyl}-6-methyl-3-(3-methylphenyl)-4H-pyrido[1,2-a]pyrimidin-4-one trifluoroacetic acid salt] | < 50 |
| Cc1cccc2nc(C(C)Nc3ncnc4[nH]cnc34)c(-c3cccc(Cl)c3)c(=O)n12 (stereo not drawn) [Example 53, 3-(3-Chlorophenyl)-6-methyl-2-[1-(9H-purin-6-ylamino)ethyl]-4H-pyrido[1,2-a]pyrimidin-4-one trifluoroacetic acid salt] | 100 to 500 |
| Cc1cccc2nc(C(C)Nc3nc(N)nc4[nH]cnc34)c(-c3cccc(Cl)c3)c(=O)n12 (stereo not drawn) [Example 54, 2-{1-[(2-Amino-9H-purin-6-yl)amino]ethyl}-3-(3-chlorophenyl)-6-methyl-4H-pyrido[1,2-a]pyrimidin-4-one trifluoroacetic acid salt] | < 50 |
| Cc1cccc2nc(C(C)Nc3ncnc4[nH]cnc34)c(-c3ccc(Cl)cc3)c(=O)n12 (stereo not drawn) [Example 55, 3-(4-Chlorophenyl)-6-methyl-2-[1-(9H-purin-6-ylamino)ethyl]-4H-pyrido[1,2-a]pyrimidin-4-one trifluoroacetic acid salt] | > 500 |
| Cc1cccc2nc(C(C)Nc3nc(N)nc4[nH]cnc34)c(-c3ccc(Cl)cc3)c(=O)n12 (stereo not drawn) [Example 56, 2-{1-[(2-Amino-9H-purin-6-yl)amino]ethyl}-3-(4-chlorophenyl)-6-methyl-4H-pyrido[1,2-a]pyrimidin-4-one trifluoroacetic acid salt] | > 500 |
| Cc1cccc2nc(C(C)Nc3ncnc4[nH]cnc34)c(-c3ccccc3Cl)c(=O)n12 (stereo not drawn) [Example 57, 3-(2-Chlorophenyl)-6-methyl-2-[1-(9H-purin-6-ylamino)ethyl]-4H-pyrido[1,2-a]pyrimidin-4-one trifluoroacetic acid salt] | < 50 |
| Cc1cccc2nc(C(C)Nc3nc(N)nc4[nH]cnc34)c(-c3ccccc3Cl)c(=O)n12 (stereo not drawn) [Example 58, 2-{1-[(2-Amino-9#-purin-6-yl)amino]ethyl}-3-(2-chlorophenyl)-6-methyl-4H-pyrido[1,2-a]pyrimidin-4-one trifluoroacetic acid salt] | < 50 |
| Cc1cccc2nc(C(C)Nc3ncnc4[nH]cnc34)c(-c3ccccc3F)c(=O)n12 (stereo not drawn) [Example 59, 3-(2-Fluorophenyl)-6-methyl-2-[1-(9H-purin-6-ylamino)ethyl]-4H-pyrido[1,2-a]pyrimidin-4-one trifluoroacetic acid salt] | < 50 |
| Cc1cccc2nc(C(C)Nc3nc(N)nc4[nH]cnc34)c(-c3ccccc3F)c(=O)n12 (stereo not drawn) [Example 60, 2-{1-[(2-Amino-9#-purin-6-yl)amino]ethyl}-3-(2-fluorophenyl)-6-methyl-4H-pyrido[1,2-a]pyrimidin-4-one trifluoroacetic acid salt] | < 50 |
| Cc1cccc2nc(C(C)Nc3ncnc4[nH]cnc34)c(-c3ccc(C#N)cc3)c(=O)n12 (stereo not drawn) [Example 61, 4-{6-Methyl-4-oxo-2-[1-(9H-purin-6-ylamino)ethyl]-4H-pyrido[1,2-a]pyrimidin-3-yl}benzonitrile trifluoroacetic acid salt] | > 500 |
| Cc1cccc2nc(C(C)Nc3nc(N)nc4[nH]cnc34)c(-c3ccc(C#N)cc3)c(=O)n12 (stereo not drawn) [Example 62, 4-(2-{1-[(2-Amino-9H-purin-6-yl)amino]ethyl}-6-methyl-4-oxo-4H-pyrido[1,2-a]pyrimidin-3-yl)benzonitrile trifluoroacetic acid salt] | 100 to 500 |
| Cc1ccccc1-c1c(C(C)Nc2ncnc3[nH]cnc23)nc2cccc(C)n2c1=O (stereo not drawn) [Example 63, 6-Methyl-3-(2-methylphenyl)-2-[1-(9H-purin-6-ylamino)ethyl]-4H-pyrido[1,2-a]pyrimidin-4-one trifluoroacetic acid salt] | 100 to 500 |
| Cc1ccc(-c2c(C(C)Nc3ncnc4[nH]cnc34)nc3cccc(C)n3c2=O)cc1 (stereo not drawn) [Example 64, 6-Methyl-3-(4-methylphenyl)-2-[1-(9H-purin-6-ylamino)ethyl]-4H-pyrido[1,2-a]pyrimidin-4-one trifluoroacetic acid salt] | < 50 |
| COc1cccc(-c2c(C(C)Nc3ncnc4[nH]cnc34)nc3cccc(C)n3c2=O)c1 (stereo not drawn) [Example 65, 3-(3-Methoxyphenyl)-6-methyl-2-[1-(9H-purin-6-ylamino)ethyl]-4H-pyrido[1,2-a]pyrimidin-4-one trifluoroacetic acid salt] | < 50 |
| Cc1cccc2nc(C(C)Nc3ncnc4[nH]cnc34)c(-c3cccc(F)c3F)c(=O)n12 (stereo not drawn) [Example 66, 3-(2,3-Difluorophenyl)-6-methyl-2-[1-(9H-purin-6-ylamino)ethyl]-4H-pyrido[1,2-a]pyrimidin-4-one trifluoroacetic acid salt] | < 50 |
| Cc1cccc2nc(C(C)Nc3ncnc4[nH]cnc34)c(-c3cc(F)ccc3F)c(=O)n12 (stereo not drawn) [Example 67, 3-(2,5-Difluorophenyl)-6-methyl-2-[1-(9H-purin-6-ylamino)ethyl]-4H-pyrido[1,2-a]pyrimidin-4-one trifluoroacetic acid salt] | < 50 |
| Cc1cccc2nc(C(C)Nc3ncnc4[nH]cnc34)c(-c3ccc(F)c(F)c3)c(=O)n12 (stereo not drawn) [Example 68, 3-(3,4-Difluorophenyl)-6-methyl-2-[1-(9H-purin-6-ylamino)ethyl]-4H-pyrido[1,2-a]pyrimidin-4-one trifluoroacetic acid salt] | 100 to 500 |
| Cc1cccc2nc(C(C)Nc3ncnc4[nH]cnc34)c(-c3cc(F)cc(F)c3)c(=O)n12 (stereo not drawn) [Example 69, 3-(3,5-Difluorophenyl)-6-methyl-2-[1-(9H-purin-6-ylamino)ethyl]-4H-pyrido[1,2-a]pyrimidin-4-one trifluoroacetic acid salt] | 100 to 500 |
| CCc1cccc2nc(C(C)Nc3ncnc4[nH]cnc34)c(-c3cc(F)cc(F)c3)c(=O)n12 (stereo not drawn) [Example 76, 3-(3,5-Difluorophenyl)-6-ethyl-2-[1-(9H-purin-6-ylamino)ethyl]-4H-pyrido[1,2-a]pyrimidin-4-one trifluoroacetic acid salt] | 100 to 500 |
| CCc1cccc2nc(C(C)Nc3nc(N)nc4[nH]cnc34)c(-c3cc(F)cc(F)c3)c(=O)n12 (stereo not drawn) [Example 77, 2-{1-[(2-Amino-9#-purin-6-yl)amino]ethyl}-3-(3,5-difluorophenyl)-6-ethyl-4H-pyrido[1,2-a]pyrimidin-4-one trifluoroacetic acid salt] | 50 to 100 |
| CCc1cccc2nc(C(C)Nc3ncnc4[nH]cnc34)c(-c3ccc(F)cc3)c(=O)n12 (stereo not drawn) [Example 78, 6-Ethyl-3-(4-fluorophenyl)-2-[1-(9H-purin-6-ylamino)ethyl]-4H-pyrido[1,2-a]pyrimidin-4-one trifluoroacetic acid salt] | < 50 |
| CC(Nc1ncnc2[nH]cnc12)c1nc2ccccn2c(=O)c1-c1cc(F)cc(F)c1 (stereo not drawn) [Example 79, 3-(3,5-Difluorophenyl)-2-[1-(9H-purin-6-ylamino)ethyl]-4H-pyrido[1,2-a]pyrimidin-4-one trifluoroacetic acid salt] | > 500 |
| CC(Nc1nc(N)nc2[nH]cnc12)c1nc2ccccn2c(=O)c1-c1cc(F)cc(F)c1 (stereo not drawn) [Example 80, 2-{1-[(2-Amino-9H-purin-6-yl)amino]ethyl}-3-(3,5-difluorophenyl)-4H-pyrido[1,2-a]pyrimidin-4-one trifluoroacetic acid salt] | 100 to 500 |
| Cc1cc(-c2c(C(C)Nc3ncnc4[nH]cnc34)nc3cccc(C)n3c2=O)cnc1Cl (stereo not drawn) [Example 81, 3-(6-Chloro-5-methylpyridin-3-yl)-6-methyl-2-[1-(9H-purin-6-ylamino)ethyl]-4H-pyrido[1,2-a]pyrimidin-4-one trifluoroacetic acid salt] | > 500 |
| Cc1cc(-c2c(C(C)Nc3nc(N)nc4[nH]cnc34)nc3cccc(C)n3c2=O)cnc1Cl (stereo not drawn) [Example 82, 2-{1-[(2-Amino-9H-purin-6-yl)amino]ethyl}-3-(6-chloro-5-methylpyridin-3-yl)-6-methyl-4H-pyrido[1,2-a]pyrimidin-4-one trifluoroacetic acid salt] | > 500 |
| Cc1cccc2nc(C(C)Nc3ncnc4[nH]cnc34)c(-c3cccc(C#N)c3)c(=O)n12 (stereo not drawn) [Example 83, 3-{6-Methyl-4-oxo-2-[1-(9H-purin-6-ylamino)ethyl]-4H-pyrido[1,2-a]pyrimidin-3-yl}benzonitrile trifluoroacetic acid salt] | 100 to 500 |
| Cc1cccc2nc(C(C)Nc3nc(N)nc4[nH]cnc34)c(-c3cccc(C#N)c3)c(=O)n12 (stereo not drawn) [Example 84, 3-(2-{1-[(2-Amino-9H-purin-6-yl)amino]ethyl}-6-methyl-4-oxo-4H-pyrido[1,2-a]pyrimidin-3-yl)benzonitrile trifluoroacetic acid salt] | 50 to 100 |
